Starred links: 1 amine or outer side, 2 acyl side, 3 side chain; linkers in the order of their positions; H or OH if unused. *: point of attachment. cholesteryl‑oxycarbonylmethyl = CC(C)CCC[C@@H](C)[C@H]1CC[C@H]2[C@@H]3CC=C4C[C@@H](OC(=O)C*)CC[C@]4(C)[C@H]3CC[C@]12C; cholesteryl‑succinyl = CC(C)CCC[C@@H](C)[C@H]1CC[C@H]2[C@@H]3CC=C4C[C@@H](OC(=O)CCC(=O)*)CC[C@]4(C)[C@H]3CC[C@]12C; Palmitoyl = CCCCCCCCCCCCCCCC(=O)*; Suc = O=C(CCC(=O)[*:2])[*:1]; Hexanoyl = CCCCCC(=O)*; Pentanoyl = CCCCC(=O)*
What was measured:
[1] = system: HIV mutant virus strain HXB2D with mutation Q40H in the gp41 gene; experiment: Standard AVE, HXB2D site directed mutant Q40H; format: cell-based, HIV-1; settings: fold change vs wild type strain HXB2D
Text: (§1) • Standard Anti-Viral-Experiment “AVE” (wild type HIV strain IIIB+HIV strain HXB2D side directed mutants V38A and Q40H)
(§2) The HIV-1 replication assay measures virus replication (HIV wild type virus strain 111B or HXB2D, or a HIV mutant virus strain HXB2D with mutation V38A or Q40H in the gp41 gene) as an induction of enhanced green fluorescent protein (EGFP) expression. The indicator MT4-LTR-EGFP cells contain an EGFP gene under the control of the HIV-1 LTR promoter sequence. Successful HIV-1 infection results in viral Tat protein expression and subsequent induction of EGFP expression. Compounds/peptides inhibiting HIV-1 infection are expected to reduce EGFP expression as compared to the untreated HIV-infected control.
(§3) Serial 4-fold dilutions of test compounds/peptides were mixed with HIV-1 (IIIB, HXB2D, or a HXB2D mutant virus (V38A or Q40H)) and MT4-LTR-EGFP cells and incubated at 37° C. After 3 days, the wells were examined for EGFP expression using an argon laser-scanning microscope. The effective compound/peptide concentration inhibiting 50% of the virus-induced EGFP signal (EC50) was determined by linear interpolation of the EGFP signal vs. logarithm of the compound concentration; (T20, C34 and Sifuvirtide were added as reference compounds). For the V38A and Q40H mutant viruses, results were reported as a fold change in EC50, as compared with a drug-susceptible wild type strain HXB2D, which forms the backbone of the mutant virus. • Standard AVE (50% Human Serum)

HIV-IIIB + 50% HS = experiment: Standard AVE (50% Human Serum), HIV-1 replication assay in MT4-LTR-EGFP cells; format: cell-based; settings: fold change vs EC50 in the assay without human serum
Text: The HIV-1 replication assay (with 50% human serum) measures virus replication as an induction of enhanced green fluorescent protein (EGFP) expression, in the presence of 50% human serum. The indicator MT4-LTR-EGFP cells contain an EGFP gene under the control of the HIV-1 LTR promoter sequence. Successful HIV-1 infection results in viral Tat protein expression and subsequent induction of EGFP expression. Compounds/peptides inhibiting HIV-1 infection are expected to reduce EGFP expression as compared to the untreated HIV-infected control. Compounds/peptides binding to human serum are expected to have a reduced activity for inhibiting the virus in the assay.
Serial 4-fold dilutions of test compounds/peptides were mixed with HIV-1 and MT4-LTR-EGFP cells and incubated at 37° C., in the presence of 50% human serum. After 3 days, the wells were examined for EGFP expression using an argon laser-scanning microscope. The effective compound/peptide concentration inhibiting 50% of the virus-induced EGFP signal (EC50) was determined by linear interpolation of the EGFP signal vs. logarithm of the compound concentration; T20, C34 and Sifuvirtide were added as reference compounds. Results were reported as a fold change in EC50, as compared with the acquired EC50 in the assay without human serum.

[2] = system: HIV wild type virus strain IIIB; experiment: Standard Anti-Viral-Experiment (AVE), HIV-1 replication assay in MT4-LTR-EGFP cells, wild type IIIB; format: cell-based; settings: 3 days, EGFP signal
Text: as §1, §2, §3

Substance: Pentanoyl-ANYLALIEALIRAAQEQQEKNEAALR-NH2 (SMILES CCCCC(=O)N[C@@H](C)C(=O)N[C@@H](CC(N)=O)C(=O)N[C@@H](Cc1ccc(O)cc1)C(=O)N[C@@H](CC(C)C)C(=O)N[C@@H](C)C(=O)N[C@@H](CC(C)C)C(=O)N[C@H](C(=O)N[C@@H](CCC(=O)O)C(=O)N[C@@H](C)C(=O)N[C@@H](CC(C)C)C(=O)N[C@H](C(=O)N[C@@H](CCCNC(=N)N)C(=O)N[C@@H](C)C(=O)N[C@@H](C)C(=O)N[C@@H](CCC(N)=O)C(=O)N[C@@H](CCC(=O)O)C(=O)N[C@@H](CCC(N)=O)C(=O)N[C@@H](CCC(N)=O)C(=O)N[C@@H](CCC(=O)O)C(=O)N[C@@H](CCCCN)C(=O)N[C@@H](CC(N)=O)C(=O)N[C@@H](CCC(=O)O)C(=O)N[C@@H](C)C(=O)N[C@@H](C)C(=O)N[C@@H](CC(C)C)C(=O)N[C@@H](CCCNC(=N)N)C(N)=O)[C@@H](C)CC)[C@@H](C)CC) [Peptide 15]
- HIV-HXB2D Q40H mutant (fold change in EC50) [1]: 168
- HIV-IIIB + 50% HS (Fold change in EC50) (HIV-IIIB + 50% HS): 2
- EC50 [2]: 2 nM

Substance: AC-ACYLACIEALIRRAQEQQEKNEAALR-NH2 [Peptide 51]
- HIV-HXB2D Q40H mutant (fold change in EC50) [1]: 93
- HIV-IIIB + 50% HS (Fold change in EC50) (HIV-IIIB + 50% HS): 1
- EC50 [2]: 3 nM

Substance: Ac-ACYAACIEALIRAAQEQQEKNEAALR-NH2 [Peptide 66]
- HIV-HXB2D Q40H mutant (fold change in EC50) [1]: 231
- HIV-IIIB + 50% HS (Fold change in EC50) (HIV-IIIB + 50% HS): 2
- EC50 [2]: 3 nM

Substance: Suc-ANYLALIEALIRAAQEQQEKNEAALK(palmitoyl)-NH2 (Suc-ANYLALIEALIRAAQEQQEKNEAALK(Palmitoyl)-NH2; SMILES CCCCCCCCCCCCCCCC(=O)NCCCC[C@H](NC(=O)[C@H](CC(C)C)NC(=O)[C@H](C)NC(=O)[C@H](C)NC(=O)[C@H](CCC(=O)O)NC(=O)[C@H](CC(N)=O)NC(=O)[C@H](CCCCN)NC(=O)[C@H](CCC(=O)O)NC(=O)[C@H](CCC(N)=O)NC(=O)[C@H](CCC(N)=O)NC(=O)[C@H](CCC(=O)O)NC(=O)[C@H](CCC(N)=O)NC(=O)[C@H](C)NC(=O)[C@H](C)NC(=O)[C@H](CCCNC(=N)N)NC(=O)[C@@H](NC(=O)[C@H](CC(C)C)NC(=O)[C@H](C)NC(=O)[C@H](CCC(=O)O)NC(=O)[C@@H](NC(=O)[C@H](CC(C)C)NC(=O)[C@H](C)NC(=O)[C@H](CC(C)C)NC(=O)[C@H](Cc1ccc(O)cc1)NC(=O)[C@H](CC(N)=O)NC(=O)[C@H](C)NC(=O)CCC(=O)O)[C@@H](C)CC)[C@@H](C)CC)C(N)=O) [Peptide 13]
- HIV-HXB2D Q40H mutant (fold change in EC50) [1]: 9
- HIV-IIIB + 50% HS (Fold change in EC50) (HIV-IIIB + 50% HS): 9
- EC50 [2]: 0.4 nM

Substance: Ac-ACYAACIEALIRAAQEQQEKNEAALR-NH2 [Peptide 68]
- HIV-HXB2D Q40H mutant (fold change in EC50) [1]: >67
- HIV-IIIB + 50% HS (Fold change in EC50) (HIV-IIIB + 50% HS): 2

Substance: Ac-ANYLALIEALIRAAQEQQEKNEAALRGSGK(cholesteryl-succinyl)-NH2 (Ac-ANYLALIEALIRAAQEQQEKNEAALRGSGK(cholesteryl‑succinyl)-NH2; SMILES CC[C@H](C)[C@H](NC(=O)[C@H](CC(C)C)NC(=O)[C@H](C)NC(=O)[C@H](CCC(=O)O)NC(=O)[C@@H](NC(=O)[C@H](CC(C)C)NC(=O)[C@H](C)NC(=O)[C@H](CC(C)C)NC(=O)[C@H](Cc1ccc(O)cc1)NC(=O)[C@H](CC(N)=O)NC(=O)[C@H](C)NC(C)=O)[C@@H](C)CC)C(=O)N[C@@H](CCCNC(=N)N)C(=O)N[C@@H](C)C(=O)N[C@@H](C)C(=O)N[C@@H](CCC(N)=O)C(=O)N[C@@H](CCC(=O)O)C(=O)N[C@@H](CCC(N)=O)C(=O)N[C@@H](CCC(N)=O)C(=O)N[C@@H](CCC(=O)O)C(=O)N[C@@H](CCCCN)C(=O)N[C@@H](CC(N)=O)C(=O)N[C@@H](CCC(=O)O)C(=O)N[C@@H](C)C(=O)N[C@@H](C)C(=O)N[C@@H](CC(C)C)C(=O)N[C@@H](CCCNC(=N)N)C(=O)NCC(=O)N[C@@H](CO)C(=O)NCC(=O)N[C@@H](CCCCNC(=O)CCC(=O)O[C@H]1CC[C@@]2(C)C(=CC[C@H]3[C@@H]4CC[C@H]([C@H](C)CCCC(C)C)[C@@]4(C)CC[C@@H]32)C1)C(N)=O) [Peptide 69]
- HIV-HXB2D Q40H mutant (fold change in EC50) [1]: 11
- EC50 [2]: 0.3 nM

Substance: Ac-ECYLACIEELIRKAQEQQEKNEAALR-NH2 [Peptide 37]
- HIV-HXB2D Q40H mutant (fold change in EC50) [1]: 108
- HIV-IIIB + 50% HS (Fold change in EC50) (HIV-IIIB + 50% HS): 0.7

Substance: AC-ECYLACIEALIRAAQEQQEKNEAALR-NH2 [Peptide 45]
- HIV-HXB2D Q40H mutant (fold change in EC50) [1]: 64
- HIV-IIIB + 50% HS (Fold change in EC50) (HIV-IIIB + 50% HS): 1

Substance: Hexanoyl-ECYLACIEELIRKAQEQQEKNEAALR-NH2 (cysteine pairing not given here) [Peptide 42]
- HIV-HXB2D Q40H mutant (fold change in EC50) [1]: 27
- EC50 [2]: 1 nM

Substance: Pentanoyl-ECYLACIEALIRAAQEQQEKNEAALR-NH2 (cysteine pairing not given here) [Peptide 38]
- HIV-HXB2D Q40H mutant (fold change in EC50) [1]: 45
- EC50 [2]: 1 nM

Substance: Suc-ENYLALIEELIRKAQEQQEKNEAALR-NH2 (SMILES CC[C@H](C)[C@H](NC(=O)[C@H](CC(C)C)NC(=O)[C@H](C)NC(=O)[C@H](CC(C)C)NC(=O)[C@H](Cc1ccc(O)cc1)NC(=O)[C@H](CC(N)=O)NC(=O)[C@H](CCC(=O)O)NC(=O)CCC(=O)O)C(=O)N[C@@H](CCC(=O)O)C(=O)N[C@@H](CCC(=O)O)C(=O)N[C@@H](CC(C)C)C(=O)N[C@H](C(=O)N[C@@H](CCCNC(=N)N)C(=O)N[C@@H](CCCCN)C(=O)N[C@@H](C)C(=O)N[C@@H](CCC(N)=O)C(=O)N[C@@H](CCC(=O)O)C(=O)N[C@@H](CCC(N)=O)C(=O)N[C@@H](CCC(N)=O)C(=O)N[C@@H](CCC(=O)O)C(=O)N[C@@H](CCCCN)C(=O)N[C@@H](CC(N)=O)C(=O)N[C@@H](CCC(=O)O)C(=O)N[C@@H](C)C(=O)N[C@@H](C)C(=O)N[C@@H](CC(C)C)C(=O)N[C@@H](CCCNC(=N)N)C(N)=O)[C@@H](C)CC) [Peptide 19]
- HIV-HXB2D Q40H mutant (fold change in EC50) [1]: 151
- EC50 [2]: 1 nM

Substance: Suc-ANYLALIEALIRAAQEQQEKNEAALRGSGC(cholesteryl-oxycarbonylmethyl)-NH2 (Suc-ANYLALIEALIRAAQEQQEKNEAALRGSGC(cholesteryl‑oxycarbonylmethyl)-NH2; SMILES CC[C@H](C)[C@H](NC(=O)[C@H](CC(C)C)NC(=O)[C@H](C)NC(=O)[C@H](CCC(=O)O)NC(=O)[C@@H](NC(=O)[C@H](CC(C)C)NC(=O)[C@H](C)NC(=O)[C@H](CC(C)C)NC(=O)[C@H](Cc1ccc(O)cc1)NC(=O)[C@H](CC(N)=O)NC(=O)[C@H](C)NC(=O)CCC(=O)O)[C@@H](C)CC)C(=O)N[C@@H](CCCNC(=N)N)C(=O)N[C@@H](C)C(=O)N[C@@H](C)C(=O)N[C@@H](CCC(N)=O)C(=O)N[C@@H](CCC(=O)O)C(=O)N[C@@H](CCC(N)=O)C(=O)N[C@@H](CCC(N)=O)C(=O)N[C@@H](CCC(=O)O)C(=O)N[C@@H](CCCCN)C(=O)N[C@@H](CC(N)=O)C(=O)N[C@@H](CCC(=O)O)C(=O)N[C@@H](C)C(=O)N[C@@H](C)C(=O)N[C@@H](CC(C)C)C(=O)N[C@@H](CCCNC(=N)N)C(=O)NCC(=O)N[C@@H](CO)C(=O)NCC(=O)N[C@@H](CSCC(=O)O[C@H]1CC[C@@]2(C)C(=CC[C@H]3[C@@H]4CC[C@H]([C@H](C)CCCC(C)C)[C@@]4(C)CC[C@@H]32)C1)C(N)=O) [Peptide 35]
- HIV-HXB2D Q40H mutant (fold change in EC50) [1]: 24
- EC50 [2]: 0.3 nM

Substance: Pentanoyl-ECYLACIEELIRKAQEQQEKNEAALR-NH2 (cysteine pairing not given here) [Peptide 41]
- HIV-HXB2D Q40H mutant (fold change in EC50) [1]: 42
- EC50 [2]: 1 nM

Substance: SWETWEREIENYTRQIYRILEESQEQQDRNERDLLE [Sifuvirtide, reference compound]
- HIV-HXB2D Q40H mutant (fold change in EC50) [1]: 2
- EC50 [2]: 2 nM

Substance: Suc-ECYLACIEELIRKAQEQQEKNEAALR-NH2 (cysteine pairing not given here) [Peptide 90]
- HIV-HXB2D Q40H mutant (fold change in EC50) [1]: 65
- EC50 [2]: 1 nM

Substance: Ac-ACYAACIDALIRAAQEQQEKNEAALR-NH2 [Peptide 70]
- HIV-IIIB + 50% HS (Fold change in EC50) (HIV-IIIB + 50% HS): 1
- EC50 [2]: 23 nM

Substance: Suc-ECYLRCIEELIRKAQEQQEKNEAALRGSGC(cholesteryl-oxycarbonylmethyl)-NH2 (Suc-ECYLRCIEELIRKAQEQQEKNEAALRGSGC(cholesteryl‑oxycarbonylmethyl)-NH2; cysteine pairing not given here) [Peptide 82]
- HIV-IIIB + 50% HS (Fold change in EC50) (HIV-IIIB + 50% HS): 6
- EC50 [2]: 0.05 nM

Source: patent publication US20140357577A1, “HIV Membrane Fusion Inhibitors” (priority 2011, published 2014)
